Results reported in the NIST ThermoML archive (doi:10.1021/je900468u).

Key:
[1] = xn = mol fraction of the nth substance listed; settings: 101 kPa, Liquid; for speed of sound: Pulse-echo method
[2] = refractive index (Na D-line) (dimensionless); xn = mol fraction of the nth substance listed; settings: 101 kPa, Liquid, Standard Abbe refractometry

C1CCCCCCC1 [cyclooctane] + Cc1ccccc1
298.15 K
Settings	mass density, [1] [kg/m3]	refractive index, [2]	speed of sound, [1] [m/s]
x1 = 0.0488	859.8	1.49121	1307
x1 = 0.1031	857	1.48824	1309
x1 = 0.2021	852.5	1.48313	1315
x1 = 0.2973	848.5	1.47861	1321
x1 = 0.4014	844.7	1.47411	1329
x1 = 0.5	841.5	1.47026	1337
x1 = 0.6005	838.7	1.46667	1347
x1 = 0.6976	836.4	1.46358	1356
x1 = 0.7981	834.4	1.46073	1367
x1 = 0.9007	832.8	1.45814	1378
x1 = 0.9494	832.1	1.45705	1384
x1 = 1	831.5	1.45598	1391

C1CCCCCCC1 [cyclooctane] + c1ccccc1
298.15 K
Settings	mass density, [1] [kg/m3]	refractive index, [2]	speed of sound, [1] [m/s]
x1 = 0.0522	869.3	1.49384	1300
x1 = 0.102	865.4	1.49019	1301
x1 = 0.203	858.5	1.48375	1306
x1 = 0.3029	852.8	1.47827	1313
x1 = 0.4033	847.9	1.47346	1322
x1 = 0.5002	843.9	1.46955	1331
x1 = 0.5985	840.5	1.46607	1342
x1 = 0.7025	837.5	1.46284	1354
x1 = 0.7983	835.2	1.4603	1365
x1 = 0.8946	833.3	1.45808	1377
x1 = 0.9504	832.4	1.45694	1384
x1 = 1	831.5	1.45598	1391

CCc1ccccc1 [ethylbenzene] + C1CCCCC1
Settings	mass density, [1] [kg/m3]	refractive index, [2]	speed of sound, [1] [m/s]
283.15 K, x2 = 0	875.7	1.50129	1382
283.15 K, x2 = 0.0476	871.4	1.49802	1377
283.15 K, x2 = 0.0982	866.9	1.49455	1372
283.15 K, x2 = 0.1983	857.9	1.48762	1364
283.15 K, x2 = 0.2982	848.9	1.48066	1356
283.15 K, x2 = 0.3973	840.1	1.47373	1349
283.15 K, x2 = 0.5016	830.7	1.46641	1342
283.15 K, x2 = 0.6008	821.8	1.45942	1337
283.15 K, x2 = 0.6995	813.2	1.45257	1332
283.15 K, x2 = 0.7998	804.4	1.44558	1329
283.15 K, x2 = 0.8967	796.3	1.43898	1328
283.15 K, x2 = 0.9451	792.3	1.43569	1328
298.15 K, x2 = 0	862.5	1.49304	1319
298.15 K, x2 = 0.0476	858.2	1.48992	1314
298.15 K, x2 = 0.0982	853.7	1.48645	1309
298.15 K, x2 = 0.1983	844.7	1.47947	1300
298.15 K, x2 = 0.2982	835.6	1.47245	1291
298.15 K, x2 = 0.3973	826.7	1.46552	1283
298.15 K, x2 = 0.5016	817.2	1.45815	1275
298.15 K, x2 = 0.6008	808.3	1.45116	1268
298.15 K, x2 = 0.6995	799.5	1.44433	1263
298.15 K, x2 = 0.7998	790.7	1.43731	1258
298.15 K, x2 = 0.8967	782.4	1.43062	1255
298.15 K, x2 = 0.9451	778.4	1.42735	1254

CCc1ccccc1 [ethylbenzene] + C1CCCCCCC1
298.15 K, x2 = 0
Settings	mass density [kg/m3]	refractive index	speed of sound [m/s]
[1]	862.5	–	1319
[2]	–	1.49304	–

CCc1ccccc1 [ethylbenzene] + CC1CCCCC1
x2 = 0
Settings	mass density, [1] [kg/m3]	refractive index, [2]	speed of sound, [1] [m/s]
283.15 K	875.7	1.50129	1382
298.15 K	862.5	1.49304	1319

CC1CCCCC1 [methylcyclohexane] + CCc1ccccc1
Settings	mass density, [1] [kg/m3]	refractive index, [2]	speed of sound, [1] [m/s]
283.15 K, x1 = 0.0494	870.3	1.49728	1376
283.15 K, x1 = 0.0975	865.2	1.49353	1369
283.15 K, x1 = 0.1983	854.6	1.4855	1356
283.15 K, x1 = 0.2981	844.4	1.47786	1345
283.15 K, x1 = 0.4008	834.1	1.47018	1333
283.15 K, x1 = 0.5005	824.2	1.46281	1323
283.15 K, x1 = 0.6001	814.6	1.45566	1313
283.15 K, x1 = 0.7006	805.2	1.44856	1304
283.15 K, x1 = 0.7952	796.4	1.44194	1297
283.15 K, x1 = 0.8949	787.3	1.43542	1289
283.15 K, x1 = 0.9495	782.4	1.43163	1285
283.15 K, x1 = 1	777.9	1.42833	1281
298.15 K, x1 = 0.0494	857.2	1.48923	1312
298.15 K, x1 = 0.0975	852.1	1.48542	1305
298.15 K, x1 = 0.1983	841.5	1.47754	1292
298.15 K, x1 = 0.2981	831.2	1.46988	1280
298.15 K, x1 = 0.4008	820.9	1.46219	1268
298.15 K, x1 = 0.5005	811	1.45484	1258
298.15 K, x1 = 0.6001	801.4	1.44771	1247
298.15 K, x1 = 0.7006	791.9	1.44068	1236
298.15 K, x1 = 0.7952	783.1	1.43414	1230
298.15 K, x1 = 0.8949	774.2	1.42751	1222
298.15 K, x1 = 0.9495	769.3	1.4239	1218
298.15 K, x1 = 1	765.1	1.42062	1215
